Source: patent US20150253591A1, “DYE COMPOSITION FOR ELECTROWETTING DISPLAY AND ELECTROWETTING DISPLAY DEVICE” (FUJIFILM CORPORATION, priority 2012, published 2015)
Blank lines part the entries; values can stand above or below the compound they belong to.

Key:
Type in all cases: physicochemical
[1] = High temperature suitability of dye composition; conditions: 180° C. for 2 hours without a cap; for High temperature suitability, Dihexyl ether (present invention): 20% by mass dye in dihexyl ether; for High temperature suitability, Dipentyl ether (present invention): 20% by mass dye in dipentyl ether; for High temperature suitability, Decane (comparative): 20% by mass dye in n-decane
Description: Each dye composition was placed in a vial, and the vial was left standing in an oil bath without a cap at 180° C. for 2 hours. The mass of the vial after standing was weighed and evaluated according to the following evaluation criteria.
A: Decrease in the mass of the vial was less than 10%.
B: Decrease in the mass of the vial was 10% or more.

[2] = Low temperature suitability of dye composition; set-up: key: A dye composition was maintained in a liquid state.; B: A dye composition was not maintained in a liquid state, and changed to a solid state; conditions: -41° C. for 12 hours; for Low temperature suitability, Dihexyl ether (present invention): 20% by mass dye in dihexyl ether; for Low temperature suitability, Dipentyl ether (present invention): 20% by mass dye in dipentyl ether; for Low temperature suitability, Decane (comparative): 20% by mass dye in n-decane
Description: Each dye composition was placed in a vial, and the vial was left standing in an ice bath (calcium chloride+ice) at −41° C. for 12 hours. The condition of each dye composition after standing was observed and evaluated according to the following evaluation criteria.
A: A dye composition was maintained in a liquid state.
B: A dye composition was not maintained in a liquid state, and changed to a solid state.

[3] = Solubility of dye in nonpolar solvent; conditions: for Solubility Dihexyl ether: in dihexyl ether at 25° C. and 0.1 MPa; for Solubility n-Decane: in n-decane at 25° C. and 0.1 MPa
Description: Each of the prepared 20% by mass solutions (dye compositions) was heated at 50° C. and then left standing at room temperature for 12 hours to obtain a supernatant liquid. The amount of the unsolved dye was weighed and the solubility of each pigment in dihexyl ether or n-decane at 25° C. and 0.1 MPa was calculated.

[4] = Relative dielectric constant of nonpolar solvent; conditions: 1 kHz, 20° C. and 40% RH
Description: The relative dielectric constant is determined by injecting a nonpolar solvent in a glass cell with a 10-μm cell gap provided with an ITO transparent electrode, and measuring the electrical capacity of the obtained cell using a 2353LCR METER manufactured by NF Corporation (measurement frequency: 1 kHz) at 20° C. and 40% RH.

relative dielectric constant ∈r [4]: 2.1
Compound: CCCCCCCCCCCCOCCCCCCCCCCCC [didodecyl ether]

relative dielectric constant ∈r [4]: 2.1
Compound: CCCCCCCOCCCCCCC [diheptyl ether]

relative dielectric constant ∈r [4]: 2.1
Compound: CCCCCCOCCCCCC [dihexyl ether]

relative dielectric constant ∈r [4]: 2.1
Compound: CCCCCOCCCCC [dipentyl ether]

The remaining lines, values behind:

Compound: CCCCC(CC)CN(CC(CC)CCCC)c1ccc(/C=C2\C(=O)ON=C2C(C)(C)C)c(C)c1 (stereo not drawn) [Dye P-1]
High temperature suitability, Dihexyl ether (present invention) [1]: A (Decrease in the mass of the vial was less than 10%.)
High temperature suitability, Dipentyl ether (present invention) [1]: A (Decrease in the mass of the vial was less than 10%.)
High temperature suitability, Decane (comparative) [1]: B (Decrease in the mass of the vial was 10% or more.)
Low temperature suitability, Dihexyl ether (present invention) [2]: A
Low temperature suitability, Dipentyl ether (present invention) [2]: A
Low temperature suitability, Decane (comparative) [2]: B
Solubility Dihexyl ether [3]: 20 or more % by mass
Solubility n-Decane [3]: 20 or more % by mass

Compound: CCCCC(CC)CN(CC(CC)CCCC)c1ccc(/N=C2/C(C)=Nn3nc(C(C)(C)C)nc32)cc1 (stereo not drawn) [Dye P-2]
High temperature suitability, Dihexyl ether (present invention) [1]: A (Decrease in the mass of the vial was less than 10%.)
High temperature suitability, Dipentyl ether (present invention) [1]: A (Decrease in the mass of the vial was less than 10%.)
High temperature suitability, Decane (comparative) [1]: B (Decrease in the mass of the vial was 10% or more.)
Low temperature suitability, Dihexyl ether (present invention) [2]: A
Low temperature suitability, Dipentyl ether (present invention) [2]: A
Low temperature suitability, Decane (comparative) [2]: B
Solubility Dihexyl ether [3]: 20 or more % by mass
Solubility n-Decane [3]: 20 or more % by mass

Compound: C1CCC(OC2CCCCC2)CC1 [dicyclohexyl ether]
relative dielectric constant ∈r [4]: 2.1
